According to US11584765B2 (priority 2017, dated 2023):

Test system: C57BL/6 mice
Experiment: animal or person
Type: in vivo
Conditions: Mus musculus, sc, 0.5 h, s.c. administration, 30 min, 55° C. water, read-out: ED50 (mg/kg) at 30 min on C57BL/6 mice in Warm-water Tail-flick Test

Structure (SMILES)	ED50 [mg/kg]
CC(=O)Nc1ccc(CN2CCC(CCc3ccccc3)(c3ccccn3)C2)cc1 (stereo not shown) [Compound 30, N-(4-((3-phenethyl-3-(pyridin-2-yl)pyrrolidin-1-yl)methyl)phenyl)acetamide]	> 10
CC(=O)Nc1ccc(NN2CCC(CCc3ccccc3)(c3ccccn3)CC2)cc1 [Compound 31, N-(4-(4-phenethyl-4-(pyridin-2-yl)piperidin-1-ylamino)phenyl)acetamide]	> 10
CC(=O)Nc1ccc(CN2CCCC(CCc3ccccc3)(c3ccccn3)C2)cc1 (stereo not shown) [Compound 32, N-(4-((3-phenethyl-3-(pyridin-2-yl)piperidin-1-yl)methyl)phenyl)acetamide]	> 10
CC(=O)Nc1ccc(CN2CCC(/C=C/c3ccccc3)(c3ccccn3)CC2)cc1 [Compound 33, (E)-N-(4-((4-(pyridin-2-yl)-4-styrylpiperidin-1-yl)methyl)phenyl)acetamide]	> 10
CC(=O)Nc1ccc(CN2CCC(CCc3ccccc3)(c3nccn3C)CC2)cc1 [Compound 34, N-(4-((4-(1-methyl-1H-imidazol-2-yl)-4-phenethylpiperidin-1-yl)methyl)phenyl)acetamide]	> 10
CC(=O)NCCCCN1CCC(CCc2ccccc2)(c2ccccn2)CC1 [Compound 35, N-(4-(4-phenethyl-4-(pyridin-2-yl)piperidin-1-yl)butyl)acetamide]	> 10
CC(=O)NCCN1CCC(CCc2ccccc2)(c2ccccn2)CC1 [Compound 36, N-(2-(4-phenethyl-4-(pyridin-2-yl)piperidin-1-yl)ethyl)acetamide]	> 10
CC(=O)Nc1ccc(CN2CCC(CCc3ccccc3)(c3cccc(F)n3)CC2)cc1 [Compound 37, N-(4-((4-(6-fluoropyridin-2-yl)-4-phenethylpiperidin-1-yl)methyl)phenyl)acetamide]	> 10
COc1ccc(C2(CCc3ccccc3)CCN(Cc3ccc(NC(C)=O)cc3)CC2)nc1 [Compound 38, N-(4-((4-(5-methoxypyridin-2-yl)-4-phenethylpiperidin-1-yl)methyl)phenyl)acetamide]	> 10
CC(=O)Nc1ccc(CN2CCC(CCc3ccccc3)(Cc3ccccn3)CC2)cc1 [Compound 39, N-(4-((4-phenethyl-4-(pyridin-2-ylmethyl)piperidin-1-yl)methyl)phenyl)acetamide]	> 10
CC(=O)Nc1ccc(CN2CCC(/C=C/c3ccccc3)(c3ccncc3)CC2)cc1 [Compound 40, (E)-N-(4-((4-(pyridin-4-yl)-4-styrylpiperidin-1-yl)methyl)phenyl)acetamide]	> 10
Nc1ccc(CN2CCC(CCc3ccccc3)(c3ccccn3)CC2)cc1 [Compound 41, 4-((4-phenethyl-4-(pyridin-2-yl)piperidin-1-yl)methyl)aniline]	> 10
CC(=O)Nc1ccc(CN2CCC(C(=O)c3ccccc3)(c3ccccn3)CC2)cc1 [Compound 42, N-(4-((4-benzoyl-4-(pyridin-2-yl)piperidin-1-yl)methyl)phenyl)acetamide]	> 10
CC(=O)N(C)c1ccc(CN2CCC(CCc3ccccc3)(c3ncc[nH]3)CC2)cc1 [Compound 43, N-(4-((4-(1H-imidazol-2-yl)-4-phenethylpiperidin-1-yl)methyl)phenyl)-N-methylacetamide]	> 10
CC(=O)Nc1ccc(CN2CCC(/C=C/c3ccccn3)(c3ccccn3)CC2)cc1 [Compound 44, (E)-N-(4-((4-(pyridin-2-yl)-4-(2-(pyridin-2-yl)vinyl)piperidin-1-yl)methyl)phenyl)acetamide]	> 10
CC(=O)Nc1ccc(CN2CCC(c3ccccn3)(C(O)c3ccccc3)CC2)cc1 (stereo not shown) [Compound 45, N-(4-((4-(hydroxy(phenyl)methyl)-4-(pyridin-2-yl)piperidin-1-yl)methyl)phenyl)acetamide]	> 10

Structure (SMILES)	ED50 [mg/kg]
CC(=O)Nc1ccc(CN2CCC(/C=C/Cc3ccccc3)(c3ccccn3)CC2)cc1 [Compound 46, (E)-N-(4-((4-(3-phenylprop-1-enyl)-4-(pyridin-2-yl)piperidin-1-yl)methyl)phenyl)acetamide]	> 10
CC(=O)Nc1ccc(CN2CCC(/C=C/c3ccccc3)(c3cccc(F)n3)CC2)cc1 [Compound 47, (E)-N-(4-((4-(6-fluoropyridin-2-yl)-4-styrylpiperidin-1-yl)methyl)phenyl)acetamide]	> 10
CC(=O)Nc1ccc(CN2CCC(/C=C/c3ccccc3)(c3cccnc3)CC2)cc1 [Compound 48, (E)-N-(4-((4-(pyridin-3-yl)-4-styrylpiperidin-1-yl)methyl)phenyl)acetamide]	> 10
C=CCC1(c2ccccn2)CCN(Cc2ccc(NC(C)=O)cc2)CC1 [Compound 49, N-(4-((4-allyl-4-(pyridin-2-yl)piperidin-1-yl)methyl)phenyl)acetamide]	> 10
O=C(Nc1ccc(CN2CCC(CCc3ccccc3)(c3ccccn3)CC2)cc1)C(F)(F)F [Compound 50, 2,2,2-trifluoro-N-(4-((4-phenethyl-4-(pyridin-2-yl)piperidin-1-yl)methyl)phenyl)acetamide]	> 10
CC(=O)Nc1ccc(CN2CCC(CCc3ccccc3)(c3ccccn3)CC2)cc1F.Cl [Compound 52, N-(2-fluoro-4-((4-phenethyl-4-(pyridin-2-yl)piperidin-1-yl)methyl)phenyl)acetamide HCl]	> 10
CC(=O)Nc1ccc(CN2CCC(CCc3ccccc3)(c3ccccn3)CC2)c(F)c1 [Compound 53, N-(3-fluoro-4-((4-phenethyl-4-(pyridin-2-yl)piperidin-1-yl)methyl)phenyl)acetamide]	> 10
CNC(=O)c1ccc(CN2CCC(CCc3ccccc3)(c3ccccn3)CC2)cc1 [Compound 54, N-methyl-4-((4-phenethyl-4-(pyridin-2-yl)piperidin-1-yl)methyl)benzamide]	> 10
NC(=O)c1ccc(CN2CCC(CCc3ccccc3)(c3ccccn3)CC2)cc1 [Compound 55, 4-((4-phenethyl-4-(pyridin-2-yl)piperidin-1-yl)methyl)benzamide]	> 10
CC(=O)Nc1ccc(CN2CCC(CCc3ccccc3)(CN(C)C)CC2)cc1 [Compound 56, N-(4-((4-((dimethylamino)methyl)-4-phenethylpiperidin-1-yl)methyl)phenyl)acetamide]	> 10
CC(=O)Nc1ccc(CN2CCC(CCc3ccccc3)(CN(C)C(C)=O)CC2)cc1 [Compound 57, N-((1-(4-acetamidobenzyl)-4-phenethylpiperidin-4-yl)methyl)-N-methylacetamide]	> 10
CC(=O)Nc1ccc(CN2CCC(CCc3ccccc3)(COC(C)=O)CC2)cc1 [Compound 58, (1-(4-acetamidobenzyl)-4-phenethylpiperidin-4-yl)methyl acetate]	> 10
CCOCC1(CCc2ccccc2)CCN(Cc2ccc(NC(C)=O)cc2)CC1 [Compound 59, N-(4-((4-(ethoxymethyl)-4-phenethylpiperidin-1-yl)methyl)phenyl)acetamide]	< 10
CC(=O)Nc1ccc(CN2CCC(CCc3ccccc3)(C(N)=O)CC2)cc1 [Compound 60, 1-(4-acetamidobenzyl)-4-phenethylpiperidine-4-carboxamide]	> 10
Oc1ccc(CN2CCC(CCc3ccccc3)(c3ccccn3)CC2)cc1 [Compound 61, 4-((4-phenethyl-4-(pyridin-2-yl)piperidin-1-yl)methyl)phenol]	> 10
